Data: patent US9695151B2, “3,4-dihydro-2H-isoquinoline-1-one and 2,3-dihydro-isoindol-1-one compounds” (Hoffmann-La Roche Inc., priority 2013, dated 2017)

How the values were obtained:
human CYP11B1 = human CYP11B1 (Homo sapiens (Human), UniProt P15538); experiment: G-402 cellular enzyme assay, human CYP11B1 (cortisol release); format: cell-based; conditions: G-402 cells, 1 μM Deoxycortisol
From the text: (§1) Herein we identified the use of the G-402 cell line as a host cell to ectopically express (transiently or stably) enzymes of the CYP11 family. Specifically we developed stable G-402 cells expressing ectopically human CYP11B1, human CYP11B2, human CYP11A1, cynmolgus CYP11B1 or cynomolgus CYP11B2 enzyme activity. Importantly the identified cell line G-402 expresses co-factors (adrenodoxin and adrenodoxin reductase) important for the activity of the CYP11 family and no relevant enzyme activity of the CYP11 family (in comparison to H295R cells) was detected in these cells. Therefore the G-402 cell line is uniquely suited as a host cell for the ectopic expression of enzymes from the CYP11 family.
(§2) G-402 cells can be obtained from ATCC (CRL-1440) and were originally derived from a renal leiomyoblastoma.
(§3) The expression plasmids contains the ORF for either human/cyno CYP11B1 or CYP11B2 under the control of a suitable promoter (CMV-promoter) and a suitable resistance marker (neomycin). Using standard techniques the expression plasmid is transfected into G-402 cells and these cells are then selected for expressing the given resistance markers. Individual cell-clones are then selected and assessed for displaying the desired enzymatic activity using 11-Deoxycorticosterone (Cyp11B2) or 11-Deoxycortisol (Cyp11B1) as a substrate.
(§4) G-402 cells expressing CYP11 constructs were established as described above and maintained in McCoy's 5a Medium Modified, ATCC Catalog No. 30-2007 containing 10% FCS and 400 μg/ml G418 (Geneticin) at 37° C. under an atmosphere of 5% CO2/95% air. Cellular enzyme assays were performed in DMEM/F12 medium containing 2.5% charcoal treated FCS and appropriate concentration of substrate (0.3-10 uM 11-Deoxycorticosterone, 11-Deoxycortisol or Corticosterone). For assaying enzymatic activity, cells were plated onto 96 well plates and incubated for 16 h. An aliquot of the supernatant is then transferred and analyzed for the concentration of the expected product (Aldosterone for CYP11B2; Cortisol for CYP11B1). The concentrations of these steroids can be determined using HTRF assays from CisBio analyzing either Aldosterone or Cortisol.
(§5) Inhibition of the release of produced steroids can be used as a measure of the respective enzyme inhibition by test compounds added during the cellular enzyme assay. The dose dependent inhibition of enzymatic activity by a compound is calculated by means of plotting added inhibitor concentrations (x-axes) vs. measured steroid/product level (y-axes). The inhibition is then calculated by fitting the following 4-parameter sigmoidal function (Morgan-Mercer-Flodin (MMF) model) to the raw data points using the least squares method:
(§6) [formula] wherein, A is the maximum y value, B is the EC50 factor determined using XLFit, C is the minimum y value and D is the slope value.
(§7) EC50 values for compounds claimed herein were tested with the G402-based assay system described. Cyp11B2 enzyme activity was tested in presence of 1 μM Deoxycorticosterone and variable amounts of inhibitors; Cyp11B1 enzyme activity was tested in presence of 1 μM Deoxycortisol and variable amounts of inhibitors.

CYP11B2 = CYP11B2 (Homo sapiens (Human), UniProt P19099); experiment: G-402 cellular enzyme assay, human CYP11B2 (aldosterone release); format: cell-based; conditions: G-402 cells, 1 μM Deoxycorticosterone
CYP11B2, sequence (P19099 25-503): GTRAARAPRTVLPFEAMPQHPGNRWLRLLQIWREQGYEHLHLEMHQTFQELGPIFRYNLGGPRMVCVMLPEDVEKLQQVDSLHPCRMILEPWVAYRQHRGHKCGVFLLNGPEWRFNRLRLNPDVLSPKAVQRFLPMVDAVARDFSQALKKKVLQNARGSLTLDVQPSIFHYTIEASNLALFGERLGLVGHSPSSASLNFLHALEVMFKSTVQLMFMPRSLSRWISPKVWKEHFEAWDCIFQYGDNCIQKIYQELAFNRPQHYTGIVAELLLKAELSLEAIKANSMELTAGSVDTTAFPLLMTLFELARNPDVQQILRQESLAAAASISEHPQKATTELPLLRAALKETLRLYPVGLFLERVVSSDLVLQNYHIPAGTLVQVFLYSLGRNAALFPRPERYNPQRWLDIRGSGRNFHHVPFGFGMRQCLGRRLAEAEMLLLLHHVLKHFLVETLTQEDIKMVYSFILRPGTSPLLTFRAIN
From the text: as §1, §2, §3, §4, §5, §6, §7

human CYP11B1, sequence (P15538 25-503): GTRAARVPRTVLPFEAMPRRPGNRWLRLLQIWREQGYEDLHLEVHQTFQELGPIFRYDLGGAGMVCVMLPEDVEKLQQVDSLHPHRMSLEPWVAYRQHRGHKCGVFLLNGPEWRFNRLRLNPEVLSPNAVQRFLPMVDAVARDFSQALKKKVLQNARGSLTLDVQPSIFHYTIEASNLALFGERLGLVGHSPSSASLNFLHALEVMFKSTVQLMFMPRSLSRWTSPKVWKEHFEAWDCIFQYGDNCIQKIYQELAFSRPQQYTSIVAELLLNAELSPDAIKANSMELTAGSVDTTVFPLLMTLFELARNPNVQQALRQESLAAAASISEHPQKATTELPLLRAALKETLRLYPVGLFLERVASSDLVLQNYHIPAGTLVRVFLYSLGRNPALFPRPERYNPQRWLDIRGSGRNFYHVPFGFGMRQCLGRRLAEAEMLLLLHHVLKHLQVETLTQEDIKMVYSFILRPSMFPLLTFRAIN

EC50 (human CYP11B1)	EC50 (CYP11B2)	Compound
1640 nM	8 nM	CCS(=O)(=O)N1CC(Nc2cncc(N3C(=O)c4ccc(Cl)cc4C3(C)C)c2)C1 [Example 7, 5-Chloro-2-[5-[(1-ethylsulfonylazetidin-3-yl)amino]pyridin-3-yl]-3,3-dimethylisoindol-1-one]
2450 nM	31 nM	CC(=O)N1CCC(Nc2cncc(N3C(=O)c4ccc(Cl)cc4C3(C)C)c2)CC1 [Example 5, 2-[5-[(1-Acetylpiperidin-4-yl)amino]pyridin-3-yl]-5-chloro-3,3-dimethylisoindol-1-one]
6990 nM	22 nM	CCC(=O)N1CCC(Nc2cncc(N3C(=O)c4ccc(C#N)cc4C3(C)C)c2)CC1 [Example 44, 3,3-Dimethyl-1-oxo-2-[5-[(1-propanoyl-4-piperidyl)amino]-3-pyridyl]isoindoline-5-carbonitrile]
10900 nM	39 nM	CCS(=O)(=O)N1CC(Nc2cncc(N3C(=O)c4ccc(Cl)cc4[C@H]3C)c2)C1 (single isomer, unassigned) [Example 41, (3R or 3S)-5-Chloro-2-[5-[(1-ethylsulfonylazetidin-3-yl)amino]-3-pyridyl]-3-methyl-isoindolin-1-one]
38000 nM	352 nM	CCS(=O)(=O)N1CCCC(Nc2cncc(N3C(=O)c4ccc(Cl)cc4C3(C)C)c2)C1 (single isomer, unassigned) [Example 24, 5-Chloro-2-[5-[[(3R or 3S)-1-ethylsulfonylpiperidin-3-yl]amino]pyridin-3-yl]-3,3-dimethylisoindol-1-one]
86 nM	2 nM	CCC(=O)N1CC(N(C)c2cncc(N3C(=O)c4ccc(Cl)cc4C3(C)C)c2)C1 [Example 12, 5-Chloro-3,3-dimethyl-2-[5-[methyl-(1-propanoylazetidin-3-yl)amino]pyridin-3-yl]isoindol-1-one]
41100 nM	215 nM	CC(=O)N1CC(Nc2cncc(N3CCc4cc(Cl)ccc4C3=O)c2)C1 [Example 32, 2-[5-[(1-Acetylazetidin-3-yl)amino]pyridin-3-yl]-6-chloro-3,4-dihydroisoquinolin-1-one]
25 nM	0.6 nM	CCCS(=O)(=O)N1CC(N(C)c2cncc(N3C(=O)c4ccc(Cl)cc4C3(C)C)c2)C1 [Example 14, 5-Chloro-3,3-dimethyl-2-[5-[methyl-(1-propylsulfonylazetidin-3-yl)amino]pyridin-3-yl]isoindol-1-one]
4180 nM	154 nM	CCC(=O)N1CC(Nc2cncc(N3C(=O)c4ccc(Cl)cc4[C@@H]3C)c2)C1 (single isomer, unassigned) [Example 40, (3S or 3R)-5-Chloro-3-methyl-2-[5-[(1-propanoylazetidin-3-yl)amino]-3-pyridyl]isoindolin-1-one]
5930 nM	122 nM	CCC(=O)N1CC(Nc2cncc(N3C(=O)c4ccc(C#N)cc4C3(C)C)c2)C1 [Example 45, 3,3-Dimethyl-1-oxo-2-[5-[(1-propanoylazetidin-3-yl)amino]-3-pyridyl]isoindoline-5-carbonitrile]
1540 nM	4 nM	CCS(=O)(=O)N1CCC(Nc2cncc(N3C(=O)c4ccc(Cl)cc4C3(C)C)c2)CC1 [Example 6, 5-Chloro-2-[5-[(1-ethylsulfonylpiperidin-4-yl)amino]pyridin-3-yl]-3,3-dimethylisoindol-1-one]
15400 nM	61 nM	CCS(=O)(=O)N1CC(Nc2cncc(N3CCc4cc(Cl)ccc4C3=O)c2)C1 [Example 30, 6-Chloro-2-[5-[(1-ethylsulfonylazetidin-3-yl)amino]pyridin-3-yl]-3,4-dihydroisoquinolin-1-one]
> 30000 nM	65 nM	CCC(=O)N1CC(Nc2cncc(N3C(=O)c4ccc(Cl)cc4C3C)c2)C1 (stereo not shown) [Example 33, 5-Chloro-3-methyl-2-[5-[(1-propanoylazetidin-3-yl)amino]pyridin-3-yl]-3H-isoindol-1-one]
129 nM	1 nM	CCCS(=O)(=O)N1CCC(N(C)c2cncc(N3C(=O)c4ccc(Cl)cc4C3(C)C)c2)C1 (single isomer, unassigned) [Example 17, 5-Chloro-3,3-dimethyl-2-[5-[methyl-[(3S or 3R)-1-propylsulfonylpyrrolidin-3-yl]amino]pyridin-3-yl]isoindol-1-one]
13900 nM	443 nM	CCS(=O)(=O)N1CCCC(Nc2cncc(N3C(=O)c4ccc(Cl)cc4C3(C)C)c2)C1 (single isomer, unassigned) [Example 25, 5-Chloro-2-[5-[[(3S or 3R)-1-ethylsulfonylpiperidin-3-yl]amino]pyridin-3-yl]-3,3-dimethylisoindol-1-one]
4530 nM	70 nM	CCS(=O)(=O)N1CC(Nc2cncc(N3C(=O)c4ccc(Cl)cc4C3C)c2)C1 (stereo not shown) [Example 34, 5-Chloro-2-[5-[(1-ethylsulfonylazetidin-3-yl)amino]pyridin-3-yl]-3-methyl-3H-isoindol-1-one]
2800 nM	17 nM	CC1(C)c2cc(Cl)ccc2C(=O)N1c1cncc(NC2CN(S(C)(=O)=O)C2)c1 [Example 8, 5-Chloro-3,3-dimethyl-2-[5-[(1-methylsulfonylazetidin-3-yl)amino]pyridin-3-yl]isoindol-1-one]
6850 nM	449 nM	CC(=O)N1CC2(CC(Nc3cncc(N4C(=O)c5ccc(Cl)cc5C4(C)C)c3)C2)C1 [Example 35, 2-[5-[(2-Acetyl-2-azaspiro[3.3]heptan-6-yl)amino]pyridin-3-yl]-5-chloro-3,3-dimethylisoindol-1-one]
233 nM	1 nM	CCCS(=O)(=O)N1CCC(N(C)c2cncc(N3C(=O)c4ccc(Cl)cc4C3(C)C)c2)C1 (single isomer, unassigned) [Example 18, 5-Chloro-3,3-dimethyl-2-[5-[methyl-[(3R or 3S)-1-propylsulfonylpyrrolidin-3-yl]amino]pyridin-3-yl]isoindol-1-one]
18200 nM	1200 nM	CC1(C)c2cc(Cl)ccc2C(=O)N1c1cncc(NC2CCCN(S(C)(=O)=O)C2)c1 (single isomer, unassigned) [Example 23, 5-Chloro-3,3-dimethyl-2-[5-[[(3S or 3R)-1-methylsulfonylpiperidin-3-yl]amino]pyridin-3-yl]isoindol-1-one]
732 nM	1 nM	CC(C)S(=O)(=O)N1CCC(N(C)c2cncc(N3C(=O)c4ccc(Cl)cc4C3(C)C)c2)C1 (single isomer, unassigned) [Example 15, 5-Chloro-3,3-dimethyl-2-[5-[methyl-[(3S or 3R)-1-propan-2-ylsulfonylpyrrolidin-3-yl]amino]pyridin-3-yl]isoindol-1-one]
2 nM	0.7 nM	CCC(=O)N1CCC(N(C)c2cncc(N3C(=O)c4ccc(Cl)cc4C3(C)C)c2)CC1 [Example 19, 5-Chloro-3,3-dimethyl-2-[5-[methyl-(1-propanoylpiperidin-4-yl)amino]pyridin-3-yl]isoindol-1-one]
> 30000 nM	954 nM	CCC(=O)N1CC(Nc2cncc(N3Cc4cc(Cl)ccc4C3=O)c2)C1 [Example 28, 5-Chloro-2-[5-[(1-propanoylazetidin-3-yl)amino]pyridin-3-yl]-3H-isoindol-1-one]
